Laboratory results as given in US11000491B2, “Amino-aryl-benzamide compounds and methods of use thereof” (HEPANOVA, INC., priority 2017, dated 2021).
Like-named read-outs stand apart in the source and are kept apart here.

Tests used:
Type in all cases: cell-based
SREBP-2 = SREBP-2 expression in cultured primary human hepatocytes; conditions: procedure of Example 6, read-out: SREBP-2 mRNA inhibition (EC50)
Experimental: (§1) FIG. 9. Effects of HPN-01 on the expression of SREBP-1 (master regulator of hepatic glucose metabolism and fatty acid synthesis) and SREBP-2 (master regulator of cholesterol homeostasis in cells) in cultured primary human hepatocytes.
(§2) Cultured primary human hepatocytes were treated with various concentrations of HPN-01, and the expression levels of SREBP-1 (master regulator of hepatic glucose metabolism and fatty acid synthesis) and SREBP-2 (master regulator of cholesterol homeostasis in cells) were subsequently determined.
(§3) The ability of each HPN-01 derivative obtained from the synthesis methods described above, to inhibit SREBP-1 and SREBP-2 mRNA expression in primary hepatocytes, was tested using the procedure outlined in Example 6. The results of this analysis are shown in Table 6 (third and fourth columns).

SREBP-1 = SREBP-1 expression in cultured primary human hepatocytes; conditions: procedure of Example 6, read-out: SREBP-1 mRNA inhibition (EC50)
Experimental: as §1, §2, §3

Huh7 cells = assay: LD content in Huh7 cells pre-treated with insulin, Oil-Red-O staining, absorbance OD 540 nm; conditions: procedure of Example 3, read-out: LD content inhibition (EC50)
Experimental: FIG. 6. […] Spectrophotometric absorbance of untreated or HPN-01-treated Huh7 cells pre-incubated with 1 mM insulin is shown. LD contents were stained using Oil Red O, and measured by determining spectrophotometer absorbance under OD 540 nm.
Huh7 cells were mock treated or pre-treated with 1 mM insulin, and subsequently treated with indicated amounted of HPN-01.
The ability of each HPN-01 derivative obtained from the synthesis methods described above, to inhibit LD formation in hepatocytes, was tested using the procedure outlined in Example 3. The results of this analysis are shown below in Table 6 (second column).

[1] = Homo sapiens, Huh-7, Huh7 cells

Compound	EC50 (Huh7 cells; [1]) [nM]	EC50 (SREBP-2) [nM]	EC50 (SREBP-1) [nM]	EC50 (Huh7 cells; Huh7 cells) [nM]	EC50 (SREBP-2; Homo sapiens, Hepatocyte) [nM]	EC50 (SREBP-1; Homo sapiens, Hepatocyte) [nM]
(E)-2-amino-5-styryl-4′-sulfamoyl-[1,1′-biphenyl]-3-carboxamide [HPN-01101]	–	6980	2960	570	–	–
NC(=O)c1cc(/C=C/c2cccc(Br)c2)cc(-c2ccc(S(N)(=O)=O)cc2)c1N [HPN-01103, (E)-2-amino-5-(3-bromostyryl)-4′-sulfamoyl-[1,1′-biphenyl]-3-carboxamide]	990	–	–	–	3080	2140
NCCC(=O)Nc1c(C(N)=O)cc(-c2ccc(Br)cc2)cc1-c1ccc(S(N)(=O)=O)cc1 [HPN-01514, 4′-(3-aminopropanamido)-4-bromo-4″-sulfamoyl-[1,1′:3′,1″-terphenyl]-5′-carboxamide]	1150	–	–	–	5100	2830
COC(=O)c1ccc(-c2cc(C(N)=O)c(N)c(-c3ccc(S(N)(=O)=O)cc3)c2)cc1 [HPN-01301, methyl 4′-amino-5′-carbamoyl-4″-sulfamoyl-[1,1′:3′,1″-terphenyl]-4-carboxylate]	1190	–	–	–	5350	3440
NC(=O)c1cc(C2CCC(Br)C2)cc(-c2ccc(S(N)(=O)=O)cc2)c1N (stereo not drawn) [HPN-01321, 2-amino-5-(3-bromocyclopentyl)-4′-sulfamoyl-[1,1′-biphenyl]-3-carboxamide]	1760	–	–	–	5310	3060
(E)-2-amino-5-(3-(cyclohexylamino)-3-oxoprop-1-en-1-yl)-4′-sulfamoyl-[1,1′-biphenyl]-3-carboxamide [HPN-01133]	–	3070	2550	700	–	–
Nc1c(C(=O)Nc2ccc[nH]2)cc(-c2ccc(Cl)cc2)cc1-c1ccc(S(N)(=O)=O)cc1 [HPN-01626, 4′-amino-4-chloro-N-(1H-pyrrol-2-yl)-4″-sulfamoyl-[1,1′:3′,1″-terphenyl]-5′-carboxamide]	3050	–	–	–	12500	7220
NC(=O)c1cc(-c2ccc(Cl)cc2)cc(-c2ccc(S(N)(=O)=O)cc2)c1NCCO [HPN-01531, 4-chloro-4′-((2-hydroxyethyl)amino)-4″-sulfamoyl-[1,1′:3′,1″-terphenyl]-5′-carboxamide]	6480	–	–	–	5710	3150
CCC(=O)Oc1ccc(-c2cc(C(N)=O)c(N)c(-c3ccc(S(N)(=O)=O)cc3)c2)cc1 [HPN-01305, 4′-amino-5′-carbamoyl-4″-sulfamoyl-[1,1′:3′,1″-terphenyl]-4-yl propionate]	820	–	–	–	3900	1740
decyl (E)-3-(6-amino-5-carbamoyl-4′-sulfamoyl-[1,1′-biphenyl]-3-yl)acrylate [HPN-01119]	–	4170	2710	1080	–	–
(E)-2-amino-5-(3-((4-methoxyphenyl)amino)-3-oxoprop-1-en-1-yl)-4′-sulfamoyl-[1,1′-biphenyl]-3-carboxamide [HPN-01128]	–	3470	2400	890	–	–
CCCCCCCOC(=O)/C=C/c1cc(C(N)=O)c(N)c(-c2ccc(S(N)(=O)=O)cc2)c1 [HPN-01118, heptyl (E)-3-(6-amino-5-carbamoyl-4′-sulfamoyl-[1,1′-biphenyl]-3-yl)acrylate]	840	–	–	–	2510	2340
NC(=O)c1cc(-c2ccc(Cl)cc2)cc(-c2ccc(S(N)(=O)=O)cc2)c1NC(=O)C1CC1 [HPN-01503, 4-chloro-4′-(cyclopropanecarboxamido)-4″-sulfamoyl-[1,1′:3′,1″-terphenyl]-5′-carboxamide]	700	–	–	–	6480	3940
CC(=O)Nc1ccc(/C=C/c2cc(C(N)=O)c(N)c(-c3ccc(S(N)(=O)=O)cc3)c2)cc1 [HPN-01106, (E)-5-(4-acetamidostyryl)-2-amino-4′-sulfamoyl-[1,1′-biphenyl]-3-carboxamide]	2850	–	–	–	6450	6350
Nc1c(C(=O)NCCO)cc(-c2ccc(Br)cc2)cc1-c1ccc(S(N)(=O)=O)cc1 [HPN-01608, 4′-amino-4-bromo-N-(2-hydroxyethyl)-4″-sulfamoyl-[1,1′:3′,1″-terphenyl]-5′-carboxamide]	1200	–	–	–	4310	2390
2-amino-5-((4-fluorophenyl)ethynyl)-4′-sulfamoylbiphenyl-3-carboxamide [HPN-01203]	–	2100	1700	550	–	–
Nc1c(C(=O)Nc2cc[nH]c2)cc(-c2ccc(Cl)cc2)cc1-c1ccc(S(N)(=O)=O)cc1 [HPN-01628, 4′-amino-4-chloro-N-(1H-pyrrol-3-yl)-4″-sulfamoyl-[1,1′:3′,1″-terphenyl]-5′-carboxamide]	1160	–	–	–	5480	2390
NC(=O)c1cc(-c2c[nH]c(Br)c2)cc(-c2ccc(S(N)(=O)=O)cc2)c1N [HPN-01311, 2-amino-5-(5-bromo-1H-pyrrol-3-yl)-4′-sulfamoyl-[1,1′-biphenyl]-3-carboxamide]	2020	–	–	–	5590	3090
NC(=O)c1cc(-c2ccc(Cl)cc2)cc(NCCc2ccc(S(N)(=O)=O)cc2)c1N [HPN-01425, 4-amino-4′-chloro-5-((4-sulfamoylphenethyl)amino)-[1,1′-biphenyl]-3-carboxamide]	6480	–	–	–	3440	2830
butyl (E)-3-(6-amino-5-carbamoyl-4′-sulfamoyl-[1,1′-biphenyl]-3-yl)acrylate [HPN-01117]	–	8240	6990	1150	–	–
NC(=O)c1cc(Nc2ccc(Cl)cc2)cc(-c2ccc(S(N)(=O)=O)cc2)c1N [HPN-01312, 2-amino-5-((4-chlorophenyl)amino)-4′-sulfamoyl-[1,1′-biphenyl]-3-carboxamide]	1450	–	–	–	10300	7530

Second part, led by results:

EC50 (Huh7 cells; [1]) [nM]	Compound	EC50 (SREBP-2) [nM]	EC50 (SREBP-1) [nM]	EC50 (Huh7 cells; Huh7 cells) [nM]	EC50 (SREBP-2; Homo sapiens, Hepatocyte) [nM]	EC50 (SREBP-1; Homo sapiens, Hepatocyte) [nM]
310	NC(=O)c1cc(Oc2cccc(C(=O)O)c2)cc(-c2ccc(S(N)(=O)=O)cc2)c1N [HPN-01318, 3-((6-amino-5-carbamoyl-4′-sulfamoyl-[1,1′-biphenyl]-3-yl)oxy)benzoic acid]	–	–	–	1160	770
550	NC(=O)c1cc(/C=C/c2ccccc2Cl)cc(-c2ccc(S(N)(=O)=O)cc2)c1N [HPN-01108, (E)-2-amino-5-(2-chlorostyryl)-4′-sulfamoyl-[1,1′-biphenyl]-3-carboxamide]	–	–	–	4670	2590
520	Cc1ccc(C(=O)OCC#Cc2cc(C(N)=O)c(N)c(-c3ccc(S(N)(=O)=O)cc3)c2)cc1 [HPN-01214, 3-(6-amino-5-carbamoyl-4′-sulfamoyl-[1,1′-biphenyl]-3-yl)prop-2-yn-1-yl 4-methylbenzoate]	–	–	–	6320	3420
690	Nc1c(C(=O)NC2CC2)cc(-c2ccc(Cl)cc2)cc1-c1ccc(S(N)(=O)=O)cc1 [HPN-01605, 4′-amino-4-chloro-N-cyclopropyl-4″-sulfamoyl-[1,1′:3′,1″-terphenyl]-5′-carboxamide]	–	–	–	2350	1780
500	NC(=O)c1cc(-c2ccc(Cl)cc2)cc(-c2ccc(NC(=O)CO)cc2)c1N [HPN-01419, 4′-amino-4-chloro-4″-(2-hydroxyacetamido)-[1,1′:3′,1″-terphenyl]-5′-carboxamide]	–	–	–	3530	1820
380	NC(=O)c1cc(/C=C/C(=O)NCc2ccccc2)cc(-c2ccc(S(N)(=O)=O)cc2)c1N [HPN-01131, (E)-2-amino-5-(3-(benzylamino)-3-oxoprop-1-en-1-yl)-4′-sulfamoyl-[1,1′-biphenyl]-3-carboxamide]	–	–	–	2260	1280
460	NCC(=O)Nc1c(C(N)=O)cc(-c2ccc(Cl)cc2)cc1-c1ccc(S(N)(=O)=O)cc1 [HPN-01504, 4′-(2-aminoacetamido)-4-chloro-4″-sulfamoyl-[1,1′:3′,1″-terphenyl]-5′-carboxamide]	–	–	–	1110	730
680	NC(=O)c1cc(-c2ccc(Br)cc2)cc(-c2ccc(S(N)(=O)=O)cc2)c1NC(=O)CCO [HPN-01513, 4-bromo-4′-(3-hydroxypropanamido)-4″-sulfamoyl-[1, 1′:3′,1″-terphenyl]-5′-carboxamide]	–	–	–	2880	1630
60	NC(=O)c1cc(/C=C/C(=O)Nc2ccc(Cl)cc2)cc(-c2ccc(S(N)(=O)=O)cc2)c1N [HPN-01130, (E)-2-amino-5-(3-((4-chlorophenyl)amino)-3-oxoprop-1-en-1-yl)-4′-sulfamoyl-[1,1′-biphenyl]-3-carboxamide]	–	–	–	1800	970
480	NCCC(=O)Nc1c(C(N)=O)cc(-c2ccc(Cl)cc2)cc1-c1ccc(S(N)(=O)=O)cc1 [HPN-01517, 4′-(3-aminopropanamido)-4-chloro-4″-sulfamoyl-[1, 1′:3′,1″-terphenyl]-5′-carboxamide]	2940	1960	–	–	–
